System: four different cancer cell lines (MCF7, Caco-2, HeLa, MDA-MB-231)
Test: Cell viability (EC50) in four different cancer cell lines, 3 days, nuclei count
Format: cell-based
Conditions: all four tested cell lines
Experimental: We began our biological investigations by assaying the cytotoxicity of natural deoxyelephantopin (DEP) and its unnatural analogues in four different cancer cell lines (Fig. 5a, Supplementary Figs 6–8).
Figure 5 Assessing the cytotoxicity of deoxyelephantopin (DEP) and analogues. (a) Cell viability measurements in four different cancer cell lines. Cells were treated with compounds for 3 days, the nuclei were stained with DAPI and counted (EC50 values±s.d. shown; n=3). **P<0.005 and ***P<0.0005 by two-sided Student's t-test. (b) Detection of caspase activation and apoptosis in MCF7 cells using FITC-VAD-FMK fluorescent probe (top) or Annexin V staining (bottom). The cells were treated with 1 μM staurosporine (positive control) or 20 μM deoxyelephantopin for 8 h. Confocal microscopy images are shown. EC50, effector concentration for half-maximum response. Scale bars, 30μm. […]
Biological materials. […] Protein concentration was determined using the Bradford assay (Bio-Rad).
Cell culture and preparation of lysates. […] Cells were lysed by sonication to form cell lysates and protein concentration was determined using the Bradford […]
’ cells/mL and HeLa: 1 ’ cells/mL) in a 96-well plate and allowed to attach overnight. […] Cells were imaged using a SpectraMax i3 plate reader equipped with a SpectraMax MiniMax imaging cytometer (Molecular Devices). […]
Caspase activity labeling for fluorescence cell imaging. […]

## C#CCC[C@H](OC(=O)C(=C)C)[C@H]1C(=C)C(=O)O[C@@H]1c1ccccc1 [24c]
  cytotoxicity rank among alkyne-tagged analogues 24: highest cytotoxicity

Source: PMC4992173, “Divergent synthesis and identification of the cellular targets of deoxyelephantopins” (Nature Communications, 2016)
